Measurements: patent US20240254132A1, “COMPOUNDS, COMPOSITIONS AND METHODS” (Denali Therapeutics Inc., priority 2021, published 2024)

Tested on: IL-1β secretion, THP-1 cells
Assay: IL-1β secretion assay in PMA-differentiated THP-1 cells (LPS + nigericin stimulation, IL-1β ELISA)
Type: cell-based
Details: LPS 25 ng/mL, IL-1β by ELISA
Procedure: Compounds as provided herein were tested in the following assay. Cell culture medium employed contained RPMI 1640 medium (89%), FBS (10%), Pen/Strep (1%), and 2-mercaptoethanol (0.05 mm). Freezing medium was made up of 90% FBS and 10% DMSO. THP-1 cells were removed from the liquid nitrogen and placed into a 37° C. water bath to thaw, until signs of ice dissipated. The cells were then added to 9 mL of warm cell culture medium and centrifuged for 5 minutes at 1000 rpm. The supernatant was discarded, and the cells were resuspended in new cell culture medium. THP-1 cells were then split and cultured in the cell culture medium, being passaged every 2-3 days with the cell density will be maintained between 5×10^5 and 1.5×10^6 viable cells/mL.
Procedure for […], Secretion Assay in 384-Well Plates
PMA was dissolved in DMSO to make a stock solution at 5 mg/mL and stored in 10 μl aliquots at −20° C. for single use. PMA is added to normal growth medium. LPS was diluted with 1 mL of water solution to provide a 1 mg/mL stock solution and stored in 15 μl aliquots at −20° C. for single use. Nigericin is diluted in ice cold 100% ethanol to 5 mg/mL (6.7 mM) and stored in 75 μL aliquots at −20° C. for single use. Serum-free media contains RPMI 1640 medium (99%), Pen/Strep (1%), and 2-mercaptoethanol (0.05 mM). The two control conditions used to qualify and normalize test compound dose-response curves were as follows: High Control=25 ng/mL LPS, 5 μM Nigericin, 0.5% DMSO, Low Control=25 ng/mL, LPS, 0.5% DMSO.
THP-1 cells were diluted to provide a suspension at a concentration of 1.0×10^6 cells/mL with the total volume of suspension required to enable the desired number of assay plates. The growth media was supplemented with PMA (5 ng/mL final concentration) and the cells were incubated at 37° C. under a humidified atmosphere of 5% CO2 for 40 h.
All media was carefully aspirated from each culture flask. The cells were washed carefully with 1×DPBS. The cells were then briefly digested with trypsin LE for 5 minutes at 23° C. and immediately resuspended in cell growth media. After resuspension, the cells were centrifuged at 1000 rpm for 3 minutes and the supernatant was discarded. The cells were resuspended in DPBS and once again centrifuged at 1000 rpm for 5 minutes. The supernatant was discarded and the cell pellet was resuspended in serum-free media supplemented with LPS (25 ng/mL final concentration) to enable the distribution of 30K THP-1 cells within 45 μL of media into each well of 384-well PDL-coated plates. The 384-well plates were then incubated at 37° C. under a humidified atmosphere of 5% CO2 for 2 h. Following this period, test compounds were dispensed by Tecan across the desired concentration range with all wells normalized to a final 0.5% DMSO concentration. The plates were then incubated at 37° C. under a humidified atmosphere of 5% CO2 for 1 h. Following this period, 5 μL of the 5 mg/mL nigericin stock solution was added to each of the appropriate wells and plates were centrifuged at 1000 rpm for 30 seconds. The plates were the immediately reintroduced to the incubator at 37° C. under a humidified atmosphere of 5% CO2 for 2 h. After this time, 35 μL/well of supernatant was collected and transferred into v-bottom plate and centrifuged at 1000 rpm for 1 minute. These supernatant aliquots were analyzed using an IL-Iβ detection kit as described below. If needed, the test samples could be snap frozen and stored at −80° C. until analyzed.
To prepare each ELISA plate, capture antibody (mAb Mt175) was diluted with PBS to a final concentration of 2 μg/mL and then 20 μL of this solution was added to each well of the ELISA plate. Each plate was allowed to incubate overnight at 4° C. The next day, the capture antibody solution was removed and discarded. Each ELISA plate was washed 4 times with PBST followed by the addition of 25 μL/well of blocking buffer (Licor-927-40010) supplemented with 0.1% Tween 20. […]

[1] = Homo sapiens, THP-1, class symbol
[2] = Homo sapiens, THP-1, numeric value

Row | SMILES | IC50 [1] | IC50 (numeric value) | IC50 (class symbol) | IC50 [2]
1 | C[C@H]1C[C@@]12C(=O)N(CC(=O)Nc1ncc(F)cn1)C(=O)c1ccc(Br)cc12 (single isomer, unassigned) [Example 13, N-(5-fluoropyrimidin-2-yl)-2-[(1r,2s)-6′-bromo-2-methyl-1′,3′-dioxospiro[cyclopropane-1,4′-isoquinoline]-2′-yl]acetamide] | < 10 µM | 0.286 µM | – | –
2 | C[C@H]1C[C@@]12C(=O)N(CC(=O)Nc1ncc(F)cn1)C(=O)c1ccc(Br)cc12 (single isomer, unassigned) [Example 14, N-(5-fluoropyrimidin-2-yl)-2-[(1r,2s)-6′-bromo-2-methyl-1′,3′-dioxospiro[cyclopropane-1,4′-isoquinoline]-2′-yl]acetamide] | – | 6.66 µM | < 10 µM | –
3 | CC1(C)C(=O)N(CC(=O)Nc2ncc(F)cn2)C(=O)c2ccc(Br)cc21 [Example 7] | < 10 µM | – | – | 0.269 µM
4 | O=C(CN1C(=O)c2ccc(Br)cc2C2(CCC2)C1=O)Nc1ncc(F)cn1 [Example 8, 2-(6′-bromo-1′,3′-dioxospiro[cyclobutane-1,4′-isoquinoline]-2′-yl)-N-(5-fluoropyrimidin-2-yl)acetamide] | < 10 µM | – | – | 0.388 µM
5 | O=C(CN1C(=O)c2ccc(Br)cc2C2(CC2)C1=O)N[C@@H]1CCCN(C2CCC2)C1 [Example 9, 2-(6′-bromo-1′,3′-dioxospiro[cyclopropane-1,4′-isoquinoline]-2′-yl)-N-[(3R)-1-cyclobutylpiperidin-3-yl]acetamide] | < 10 µM | – | – | 0.307 µM
6 | O=C(CN1C(=O)c2ccc(Br)cc2C2(CC(F)(F)C2)C1=O)Nc1ncc(F)cn1 [Example 10, 2-(6′-bromo-1,1-difluoro-1′,3′-dioxospiro[cyclobutane-3,4′-isoquinoline]-2′-yl)-N-(5-fluoropyrimidin-2-yl)acetamide] | 10 to 15 µM | – | – | 13.1 µM
7 | O=C(CN1C(=O)c2ccc(C3CC3)c(F)c2C2(CC2)C1=O)Nc1ncc(F)cn1 [Example 11, 2-(6′-cyclopropyl-5′-fluoro-1′,3′-dioxospiro[cyclopropane-1,4′-isoquinoline]-2′-yl)-N-(5-fluoropyrimidin-2-yl)acetamide] | < 10 µM | – | – | 0.332 µM
8 | O=C(CN1C(=O)c2ccc(Br)cc2C2(CCCC2)C1=O)Nc1ncc(F)cn1 [Example 12, 2-(6′-bromo-1′,3′-dioxospiro[cyclopentane-1,4′-isoquinoline]-2′-yl)-N-(5-fluoropyrimidin-2-yl)acetamide] | < 10 µM | – | – | 1.36 µM
9 | O=C(CN1C(=O)c2ccc(C(F)(F)F)cc2C2(CC2)C1=O)Nc1ncc(F)cn1 [Example 15, 2-[1′,3′-dioxo-6′-(trifluoromethyl)spiro[cyclopropane-1,4′-isoquinoline]-2′-yl]-N-(5-fluoropyrimidin-2-yl)acetamide] | < 10 µM | – | – | 0.893 µM
10 | O=C(CN1C(=O)c2ccc(C(F)(F)F)c(F)c2C2(CC2)C1=O)Nc1ncc(F)cn1 [Example 16, 2-[5′-fluoro-1′,3′-dioxo-6′-(trifluoromethyl)spiro[cyclopropane-1,4′-isoquinoline]-2′-yl]-N-(5-fluoropyrimidin-2-yl)acetamide] | < 10 µM | – | – | 0.918 µM
11 | CC1(C(F)(F)F)C(=O)N(CC(=O)Nc2ncc(F)cn2)C(=O)c2ccc(Br)cc21 (centres unmarked) [Example 17, 2-[6-bromo-4-methyl-1,3-dioxo-4-(trifluoromethyl)isoquinolin-2-yl]-N-(5-fluoropyrimidin-2-yl)acetamide] | < 10 µM | – | – | 2.4 µM
12 | N#Cc1cnc(NC(=O)CN2C(=O)c3ccc(Br)c(F)c3C3(CC3)C2=O)c(F)c1 [Example 18, 2-(6′-bromo-5′-fluoro-1′,3′-dioxospiro[cyclopropane-1,4′-isoquinoline]-2′-yl)-N-(5-cyano-3-fluoropyridin-2-yl)acetamide] | < 10 µM | – | – | 0.331 µM
13 | O=C(CN1C(=O)c2ccc(Br)cc2C2(COC2)C1=O)Nc1ncc(F)cn1 [Example 19, 2-(6-bromo-1,3-dioxospiro[isoquinoline-4,3′-oxetane]-2-yl)-N-(5-fluoropyrimidin-2-yl)acetamide] | < 10 µM | – | – | 4.46 µM
